From patent US6596518B2, “Percyquinnin, a process for its production and its use as a pharmaceutical” (Aventis Pharma Deutschland GmbH, priority 2000, dated 2003)

Test: Solubility (physico-chemical properties, Table 1)
Assay type: physicochemical
Conditions: solvents in which the compound is soluble

Solubility: Methanol, DMSO
Compound: CC(C)=CCC12C(=O)OC1CC=C2CO (stereo not shown) [Percyquinnin]
